Results reported in article PMC5608352, “Formyl peptide derived lipopeptides disclose differences between the receptors in mouse and men and call the pepducin concept in question” (PLoS ONE, 2017).
pEC50: −log10 of the molar value. “Also recorded” adds a separate entry of the source. Residues, ends and D or L forms follow the SMILES beside them. *: point of attachment. Palmitoyl = CCCCCCCCCCCCCCCC(=O)*

Key:
mouse neutrophils [1] = biological target: T1, mouse neutrophils (Mus musculus, UniProt O88536); experiment: Direct activation: superoxide release (isoluminol/HRP chemiluminescence), WT mouse bone marrow neutrophils; format: cell-based; settings: for pEC50: approximate value given in running text
T1 sequence (O88536 1-351): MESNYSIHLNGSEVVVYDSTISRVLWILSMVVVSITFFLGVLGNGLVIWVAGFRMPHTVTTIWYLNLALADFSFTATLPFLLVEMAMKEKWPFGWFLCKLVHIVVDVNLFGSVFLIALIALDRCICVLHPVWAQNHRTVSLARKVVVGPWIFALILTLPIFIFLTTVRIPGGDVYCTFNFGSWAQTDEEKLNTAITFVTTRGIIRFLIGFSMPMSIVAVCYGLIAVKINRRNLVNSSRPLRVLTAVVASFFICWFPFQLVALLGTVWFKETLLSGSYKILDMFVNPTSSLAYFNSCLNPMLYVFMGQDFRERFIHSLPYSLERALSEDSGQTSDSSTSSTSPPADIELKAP
From the text: (§1) Mice (8–12 weeks of age) were killed by cervical dislocation, the femurs and tibias were removed and freed of soft tissue attachments, and the extreme distal tip of each extremity was cut off. KRG without Ca^2+ and Mg^2+ (KRG-) was forced through the bone by using a 1-mL syringe with a 27-gauge needle. After dispersing cell clumps and removing the debris, the bone marrow granulocytes were isolated according to an earlier described procedure with some modifications. Briefly, a cell suspension in 2 mL of KRG- was laid on top of a three-layer Percoll gradient (1.095, 1.085, and 1.070 g/mL). The density of each Percoll solution was verified using density marker beads. After centrifugation at 500 × g for 30 min at 4°C in a swinging bucket rotor, the lowest band (1.085/1.095 g/mL interface) was collected as the neutrophil fraction. After washing with KRG-, remaining red blood cells were eliminated by hypotonic lysis. After a final wash with KRG-, the cells were resuspended in KRG. The cell number and population of bone marrow cells were determined by flow cytometry based on forward scatter (size) and side scatter (density) localization.
(§2) NADPH-oxidase activity was determined using an isoluminol and HRP-enhanced chemiluminescence (CL) system that allow for the determination of superoxide production. The CL activity was measured in a six-channel Biolumat LB 9505 apparatus (Berthold Co., Wildbad, Germany), using disposable 4-mL polypropylene tubes with 1 mL reaction mixture. The tubes contained 4 U HRP and 10 μg/mL isoluminol together with the cells that were equilibrated in the Biolumat for 5 min at 37°C, after which the stimulus solution (100 μL) was added. The light emission was recorded continuously over time and presented as superoxide production (in arbitrary light units, cpm x10^-6) as a function of time (min). The activity before stimulus addition was recorded as basal line and this activity was not changed in vehicle control samples. Since the FPR/Fpr-mediated superoxide production with respect to the onset and decline are very similar, the peak activities were used to compare the responses induced.
Naïve bone marrow cells produce very low levels of superoxide upon stimulation and to increase this production the cells were routinely primed for one hour at RT followed by TNF-α (10 ng/mL, final concentration) priming for a period of 20 min at 37°C [10]. The cells were then kept on ice until further analysis, as described above. The reason for choosing the chemiluminescence based NADPH-oxidase assay system was that very few cells are required, allowing us to monitor and quantify receptor-mediated events with the limited number of mouse bone marrow neutrophils available.
Data analysis was performed using Graph Pad Prism 7.0. The EC50/IC50 values were determined from experiments in which the activities were normalized to the response induced by maximal response or induced by agonist in the absence of inhibitor. The statistical analysis was performed on raw data using Student’s t-test when two groups were compared or one-way ANOVA with Dunnett’s multiple comparisons test in comparison to the control response when three groups were compared. * p ≤ 0.05 was considered significant.

Fpr2 [2] = biological target: T2, Fpr2 (Mus musculus, UniProt O88536); experiment: Inhibition of F2Pal16-induced superoxide release, WT mouse neutrophils; format: cell-based; settings: Boc2 2 μM or peptidomimetic inhibitor 1 μM (five experiments), or mF2Pal16 500 nM against F2Pal16 500 nM (three experiments); 5 min pre-incubation
T2 construct: WT mouse neutrophils (5 x 10^4 cells) were pre-incubated without (solid line) or with mF2Pal16; endogenous in cells; host or cells: bone marrow neutrophils of C57BL/6 wild-type mice, TNF-alpha primed
T2 sequence (O88536 1-351): T1 sequence (O88536 1-351)
From the text: as §1
(§3) NADPH-oxidase activity was determined using an isoluminol and HRP-enhanced chemiluminescence (CL) system that allow for the determination of superoxide production. The CL activity was measured in a six-channel Biolumat LB 9505 apparatus (Berthold Co., Wildbad, Germany), using disposable 4-mL polypropylene tubes with 1 mL reaction mixture. […] The light emission was recorded continuously over time and presented as superoxide production (in arbitrary light units, cpm x10^-6) as a function of time (min). The activity before stimulus addition was recorded as basal line and this activity was not changed in vehicle control samples. […]
(§4) Data analysis was performed using Graph Pad Prism 7.0. The EC50/IC50 values were determined from experiments in which the activities were normalized to the response induced by maximal response or induced by agonist in the absence of inhibitor. […]

FPR1 = experiment: Inhibition of fMLF-induced superoxide release, human neutrophils; format: cell-based; settings: pepducin 1 μM; fMLF 50 nM
From the text: (§5) Human peripheral blood neutrophils were isolated from buffy coats from healthy blood donors using dextran sedimentation and Ficoll-Paque gradient centrifugation as described. The remaining erythrocytes were disrupted by hypotonic lysis and the neutrophils were washed twice, suspended in KRG and, stored on melting ice until use. This isolation process permits cells to be purified with minimal granule mobilization. The buffy coats were obtained from the blood bank at Sahlgrenska University Hospital. Ethics approval was not needed since the buffy coats were provided anonymously and could not be traced back to a specific individual. This is in line with Swedish legislation section code 4§ 3p SFS 2003:460 (Lag om etikprövning av forskning som avser människor).
as §3

FPR2 [3] = experiment: Receptor preference in human neutrophils (FPR2 versus FPR1); format: cell-based; settings: conclusion from superoxide release experiments
From the text: as §5, §3

Fpr2 [4] = biological target: T2, Fpr2; experiment: Receptor preference in mouse neutrophils (Fpr2 versus Fpr1); format: cell-based; settings: conclusion from superoxide release, Fpr2^-/- cells, desensitization and inhibitors
From the text: (§6) C57BL/6 wild-type mice were purchased from Charles River Laboratories and Fpr2^−/− mice generated as described previously, were generously provided by Dr Ji Ming Wang, Frederick National Laboratory for Cancer Research, USA. Mice were kept under standard temperature and light conditions and fed laboratory chow and water ad libitum, at the Department of Rheumatology and Inflammation Research, University of Gothenburg. Sex matched WT and Fpr2^-/- animals (age 8–10 weeks) were used to isolated bone marrow derived neutrophils. The studies performed were approved by the Ethical Committee for Animal Experimentation, Göteborg, Sweden.
(§7) Mice (8–12 weeks of age) were killed by cervical dislocation, the femurs and tibias were removed and freed of soft tissue attachments, and the extreme distal tip of each extremity was cut off. […] The cell number and population of bone marrow cells were determined by flow cytometry based on forward scatter (size) and side scatter (density) localization.
(§8) NADPH-oxidase activity was determined using an isoluminol and HRP-enhanced chemiluminescence (CL) system that allow for the determination of superoxide production. The CL activity was measured in a six-channel Biolumat LB 9505 apparatus (Berthold Co., Wildbad, Germany), using disposable 4-mL polypropylene tubes with 1 mL reaction mixture. […]

Fpr2^-/- neutrophils = experiment: Direct activation: superoxide release, Fpr2^-/- mouse neutrophils compared with WT; format: cell-based
From the text: as §6, §7, §8

human neutrophils = experiment: Direct activation: superoxide release (isoluminol/HRP chemiluminescence), human neutrophils; format: cell-based; settings: 10^5 cells, 37°C, isoluminol/HRP CL, pepducin 1 μM
From the text: as §5, §3

FPR2 [5] = biological target: T3, FPR2 (Homo sapiens, UniProt P25090); experiment: Inhibition of WKYMVM-induced superoxide release, human neutrophils; format: cell-based; settings: pepducin 1 μM pre-incubated (mF2Pal16, F1Pal16: 5 min); WKYMVM 50 nM
T3 construct: Human peripheral blood neutrophils were isolated from buffy coats from healthy blood donors; endogenous in cells; host or cells: human peripheral blood neutrophils from buffy coats of healthy donors
T3 sequence (P25090 1-351): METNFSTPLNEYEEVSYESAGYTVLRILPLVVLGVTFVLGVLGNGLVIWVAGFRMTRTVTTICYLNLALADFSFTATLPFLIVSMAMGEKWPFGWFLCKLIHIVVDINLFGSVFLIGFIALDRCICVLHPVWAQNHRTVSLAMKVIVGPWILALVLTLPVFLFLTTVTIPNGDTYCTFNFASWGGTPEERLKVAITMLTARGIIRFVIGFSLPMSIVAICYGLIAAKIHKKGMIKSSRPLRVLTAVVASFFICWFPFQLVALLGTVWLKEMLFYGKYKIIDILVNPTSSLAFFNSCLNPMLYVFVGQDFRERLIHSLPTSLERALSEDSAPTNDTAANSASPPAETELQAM
From the text: as §5
as §2, with “Since the FPR/Fpr-mediated superoxide production with respect to the onset and decline are very similar, the peak activities were used to compare the responses induced.” left out
as §4
Human neutrophils (10^5 cells) were pre-incubated without (solid line) or with mF2Pal16 (1 μM) for 5 min before stimulation with A) the FPR2 specific agonist WKYMVM (50 nM, indicated by the arrow). […] The release of superoxide anions was measured continuously. […]

mouse neutrophils [6] = biological target: T1, mouse neutrophils; experiment: Receptor (cross-)desensitization, superoxide release, WT mouse neutrophils; format: cell-based; settings: then pepducin 1 μM
Description: NADPH-oxidase activity was determined using an isoluminol and HRP-enhanced chemiluminescence (CL) system that allow for the determination of superoxide production [29, 30]. The CL activity was measured in a six-channel Biolumat LB 9505 apparatus (Berthold Co., Wildbad, Germany), using disposable 4-mL polypropylene tubes with 1 mL reaction mixture. The tubes contained 4 U HRP and 10 μg/mL isoluminol together with the cells that were equilibrated in the Biolumat for 5 min at 37°C, after which the stimulus solution (100 μL) was added. The light emission was recorded continuously over time and presented as superoxide production (in arbitrary light units, cpm x10^-6) as a function of time (min). […] Since the FPR/Fpr-mediated superoxide production with respect to the onset and decline are very similar, the peak activities were used to compare the responses induced.
The release of superoxide anions was continuously measured. […]

Fpr2 [7] = biological target: T2, Fpr2; set-up: method as in PMID 27614010; settings: ref [12]; cited from earlier work
From the text: When looking at the FPRs in different species it is clear that the receptor family has a complex evolutionary history, as illustrated by the fact that the number of genes in the family vary markedly in mouse and man. […] As different mouse models constitute important tools for translational studies aiming to understa ... || Genetically modified mouse strains and mouse disease models provide excellent tools to study the function of neutrophil FPRs in vivo. Such studies have indicated Fprs (in particular Fpr2) as important regulators of the physiological processes leading to resolution of inflammation. However, a direct translation of mouse data to human studies is hampered due to the distant phylogenetic relationship between mouse and human receptors. In addition to the different number of Fpr genes in mice and humans and an incomplete understanding of the evolutionary relationship between human FPRs ...

CCCCCCCCCCCCCCCC(=O)N[C@@H](CCCCN)C(=O)N[C@H](C(=O)N[C@@H](Cc1c[nH]cn1)C(=O)N[C@@H](CCCCN)C(=O)N[C@@H](CCC(N)=O)C(=O)NCC(=O)N[C@@H](CC(C)C)C(=O)N[C@H](C(=O)N[C@@H](CCCCN)C(=O)N[C@@H](CO)C(=O)N[C@@H](CO)C(=O)N[C@@H](CCCNC(=N)N)C(=O)N1CCC[C@H]1C(=O)N[C@@H](CC(C)C)C(=O)N[C@@H](CCCNC(=N)N)C(=O)N[C@H](C(=O)O)C(C)C)[C@@H](C)CC)[C@@H](C)CC [F1Pal16] (Palmitoyl-KIHKQGLIKSSRPLRV-OH)
pEC50 (mouse neutrophils [1]): ~6.52

Lau-(Lys-βNSpe)6-NH2
effect of inhibitor on F2Pal16 response, WT mouse neutrophils (Fpr2 [2]): significantly reduced

CCCCCCCCCCCCCCCC(=O)N[C@@H](CCCCN)C(=O)N[C@H](C(=O)N[C@@H](Cc1c[nH]cn1)C(=O)N[C@@H](CCCCN)C(=O)N[C@@H](CCCCN)C(=O)NCC(=O)N[C@@H](CCSC)C(=O)N[C@H](C(=O)N[C@@H](CCCCN)C(=O)N[C@@H](CO)C(=O)N[C@@H](CO)C(=O)N[C@@H](CCCNC(=N)N)C(=O)N1CCC[C@H]1C(=O)N[C@@H](CC(C)C)C(=O)N[C@@H](CCCNC(=N)N)C(=O)N[C@H](C(=O)O)C(C)C)[C@@H](C)CC)[C@@H](C)CC [F2Pal16] (Palmitoyl-KIHKKGMIKSSRPLRV-OH)
pEC50 (mouse neutrophils [1]): ~6.52

CCCCCCCCCCCCCCCC(=O)N[C@@H](CCCCN)C(=O)N[C@H](C(=O)N[C@@H](Cc1c[nH]cn1)C(=O)N[C@@H](CCCNC(=N)N)C(=O)N[C@@H](CCC(N)=O)C(=O)NCC(=O)N[C@@H](CC(C)C)C(=O)N[C@H](C(=O)N[C@@H](CCCCN)C(=O)N[C@@H](CO)C(=O)N[C@@H](CO)C(=O)N[C@@H](CCCNC(=N)N)C(=O)N1CCC[C@H]1C(=O)N[C@@H](CC(C)C)C(=O)N[C@@H](CCCNC(=N)N)C(=O)N[C@H](C(=O)O)C(C)C)[C@@H](C)CC)[C@@H](C)CC [mF1Pal16] (Palmitoyl-KIHRQGLIKSSRPLRV-OH; N-terminus and C-terminus assumed)
superoxide release / activation of WT mouse neutrophils (mouse neutrophils [1]; WT mouse (C57BL/6) bone marrow neutrophils, TNF-α primed, 5 x 10^4 cells, 37°C, isoluminol/HRP CL, peak activity, pepducin 1 μM in figures): triggered activation of the NADPH-oxidase in mouse neutrophils | relative potency, activation of WT mouse neutrophils (mouse neutrophils [1]; compared in words with derivatives or other pepducins, 1 μM in Figs 3, 6C, % of fMIFL (10 nM) peak, three independent experiments): much lower EC50 value as compared to that of F1Pal16 | effect on fMLF response, human neutrophils (FPR1): did not affect the response | receptor preference / modulation of FPR2 (versus FPR1) in human neutrophils (FPR2 [3]): very similar activities but with somewhat different potency; also recorded: preference for FPR2 over FPR1; also recorded: inhibits the FPR2 activity in human neutrophils; also recorded: negatively target human FPR2 | receptor preference / modulation of Fpr2 (versus Fpr1) in mouse neutrophils (Fpr2 [4]): activates primarily Fpr2 in mouse neutrophils; also recorded: positively target the mouse Fpr2; also recorded: can act as an agonist for Fpr2 | superoxide release in Fpr2^-/- neutrophils compared with WT (Fpr2^-/- neutrophils; pepducin 1 μM, % of peak fMIFL (10 nM) response, p ≤ 0.05 significant): not abolished but significantly reduced | superoxide release / activation of human neutrophils (human neutrophils): Human neutrophils were not activated; also recorded: does not activate human neutrophils to produce superoxide | effect on WKYMVM response, human neutrophils (FPR2 [5]): inhibited the response | response to second stimulation after PSMα2 (mouse neutrophils [6]; first PSMα2 50 nM): non-responsive to a second stimulation | response to second stimulation after fMIFL (mouse neutrophils [6]; first fMIFL 10 nM): not fMIFL-stimulated cells were non-responsive

fMIFL [reference compound]
activity at mouse Fprs (earlier work) (Fpr2 [7]): potently and selectively activate Fpr1 | fMIFL superoxide response in Fpr2^-/- versus WT neutrophils (Fpr2^-/- neutrophils; fMIFL 10 nM, reference response): comparable in WT and Fpr2 deficient neutrophils

fMLF
activity at mouse Fprs (earlier work) (Fpr2 [7]): low affinity for their mouse orthologous

WKYMVM [FPR2 specific agonist]
activity at mouse Fprs (earlier work) (Fpr2 [7]): low affinity for their mouse orthologous
